# In patent US7737128B2, “Pyrimidines, such as uridine, in treatments for patients with bipolar disorder” (The McLean Hospital Corporation, priority 2004, dated 2010):
# Like-named read-outs stand apart in the source and are kept apart here.
# Tests used:
# [1] = uridine infusion, cited from earlier work
# [2] = cited from earlier work
# [3] = in vivo; cited from earlier work
# [4] = oral, cited from earlier work
# in vivo = conditions: both sexes, Crl: CD (SD)IGS BR, rat, po
# Method: RG2133 has been tested in a repeat dose rodent toxicity and toxicokinetic study. Three groups of ten male and ten female rats (Crl: CD® (SD)IGS BR strain) received RG2133 orally, by gavage, at dosages of 300, 1000, or 2000 mg/kg/day (administered as 150, 500, or 1000 mg/kg b.i.d.) in aqueous 1% carboxymethylcellulose with methyl paraben (at 1.8 g/l) and propyl paraben (at 0.2 g/l) for four weeks. Animals were examined by observation and lab analysis of blood and urine for evidence of toxicity, and results are shown in Table 1. Tissues were examined microscopically for evidence of drug related toxicity. […] The no-observed-adverse-effect-level (NOAEL) was considered to be 2000 mg/kg/day (1000 mg/kg b.i.d.).
# blood lactate levels = assay: Plasma lactate elevation after oral gavage (stress response) during repeat dose toxicology study; type: in vivo, rats; conditions: rat plasma lactate
# [5] = test system: patients with bipolar disorder; assay: Adverse events in the 6-week patient study; type: in vivo, human
# From the text: The total number of adverse events is reported by the number and percentage of subjects experiencing each adverse event. If a subject reported the same adverse event over the course of the study, that event was counted once.
# During the course of the 6-week study, there were some reported side effects to the medication. 1 subject reported stomach cramps, 1 reported nausea, 4 reported decreased appetite, 3 reported an increase in constipation, 4 reported diarrhea, 1 reported muscle cramps, 2 reported headaches, 1 reported fatigue, 2 reported problems with sleeping, 2 reported increased flatulence, and 1 reported a decrease in libido. In addition, one subject reported changes in their vision that affected their depth perception. […] The subject independently decided to increase their dose back to its original amount in response to their manic reaction to the decreased dose. Due to this protocol deviation, and the subject's manic break, the subject was terminated from the study.
# fluorouracil toxicity = conditions: cited from earlier work
# [6] = metabolites, not the prodrug, are observed in blood; cited from earlier work
# [7] = test system: patients with bipolar disorder; assay: Phase I 6-week open-label clinical trial in outpatients with bipolar disorder (rating scales, patient histories)
# From the text: The new methods are based on a Phase I open-label clinical trial of RG2133, a prodrug of uridine, designed to assess the impact of uridine in patients with bipolar disorder. […] The trial assessed the impact of daily, oral administration of escalating doses of RG2133 over a 6 week period on the symptoms associated with bipolar disorder, which are not adequately treated with existing drugs including SSRIs such as Prozac® or Zoloft®. The trial included 11 patients.
# Outpatients with bipolar disorder were recruited for this 6-week open-label study. Patients' daily dose amounts were divided into three daily doses. Subjects received an initial RG2133 dose of 6 g/day. […] Subjects were monitored for changes in mood using standard rating scales. The subjects' physical status was followed clinically and with standard laboratory measures to monitor for any adverse effects and/or toxicity.
# During the baseline visit, a detailed psychiatric and medical history was obtained, and the following standard rating scales were performed: Structured Clinical Interview for DSM-IV (SCID) for diagnosis, Young Mania Rating Scale (YMRS), Montgomery-Asberg Depression rating Scale (MADRS), the Hamilton Anxiety Scale (HAMA), Clinical Global Impression scale (CGI), the Global Assessment of Function (GAF) scale, quality of life scale (SF-36), as well as a brief adverse-effect rating scale.
# After the baseline evaluation, patients returned for office visits at weeks 1, 2, 3, 4, and 6. The same rating scales were performed at each follow-up office visit, except for the SCID. Instead of the full SCID at the follow-up visits, only the SCID screening questions for mania and depression were performed to aid in the determination of syndromic recovery or recurrence. In addition, patients maintained a daily Mood Diary, which was reviewed at each study visit to elicit symptom recall. Routine clinical and laboratory evaluations of each patient's physical status occurred at baseline and at regular intervals. Subjects were monitored for changes in mood using standard rating scales. The subjects' physical status was followed clinically and with standard laboratory measures to monitor for any adverse effects and/or toxicity.
# During the study patients were evaluated using the Montgomery-Asberg Depression Rating Scale (MADRS). This scale measures the effect of treatment on depression severity relative to a baseline assessment before treatment. The MADRS measures the severity of a number of symptoms on a scale from 0 to 60, including mood and sadness, tension, sleep, appetite, energy, concentration, suicidal ideation, and restlessness. Increasing scores reflect a greater severity of depression. Scores of 15-25 on the MADRS scale indicate moderate depression. Scores above 25 indicate clinically severe depression.
# During the study patients were also evaluated using the Young Mania Rating Scale (YMRS). This scale assesses the severity of mania in patients already diagnosed with mania based on a personal interview. Scores of 1 to 12 are not considered to be suffering from mania, whereas a score of 13 indicates minimal mania. Increasing scores to 44, indicate progressively severe mania.
# During the study patients were also evaluated using Clinical Global Impression (CGI) scale. A clinician rated the severity of the patient's illness relative to the clinician's past experience with patients with the same diagnosis. At the outset of the study a clinician created a baseline single item score on a 7 point scale from 1 (‘normal’, not ill) to 7 (extremely ill). CGI was then used to track the clinical distance between a patient's individual's current condition and his or her baseline condition at the start of treatment.
# During the study patients were evaluated using Global Assessment of Functioning (GAF), which is a modified version of the Global Assessment Scale (GAS).
# [8] = bipolar patients, daily oral escalating doses, 6 weeks
smiles,measurement,setting,value
O=c1ccn([C@@H]2O[C@H](CO)[C@@H](O)[C@H]2O)c(=O)[nH]1 [uridine],Plasma concentrations above baseline values,[1]; baseline 3 μM,> 100 fold
same,Observed side effect,[1],fever
same,Effect of higher dosages,"[2]; above 1000 mg/kg/day, some patients",mild diarrhea
same,Dosages with no known toxic effects,"[2]; pure uridine, long-term experience",up to 1000 mg/kg/day
same,volume distribution,[3],around 0.634 liters/kg
same,Reported effects,[4]; 10 or 12 g/m^2,cramps and diarrhea
same,maximum tolerated dose without side effects,[4]; multiple dosing every 6 hours,5 g/m^2
same,Reported effects,[4]; repeat doses every 6 hours of 8 g/m^2,diarrhea
same,maximum tolerated dose without side effects,[4]; single dose,10 g/m^2
same,Bioavailability,[4],5.8-9.9%
same,Doses at which no toxicity was observed,[4],≤ 8 g/m^2
same,peak plasma levels of uridine,[4],80 µM
"CC(=O)OC[C@H]1O[C@@H](n2ccc(=O)[nH]c2=O)[C@H](OC(C)=O)[C@@H]1OC(C)=O [RG2133, 2′,3′,5′-tri-O-acetyluridine]",NOAEL at 28 days,in vivo,2000 mg/kg/day
same,Effect on lactate level relative to normal baseline value (2.4 mM),blood lactate levels,did not reduce the lactate level below the normal baseline value
same,Subjects reporting a decrease in libido,[5]; 6-week study,1
same,Subjects reporting an increase in constipation,[5]; 6-week study,3
same,Subjects reporting changes in vision that affected depth perception,[5]; 6-week study,one
same,Subjects reporting decreased appetite,[5]; 6-week study,4
same,Subjects reporting diarrhea,[5]; 6-week study,4
same,Subjects reporting fatigue,[5]; 6-week study,1
same,Subjects reporting headaches,[5]; 6-week study,2
same,Subjects reporting increased flatulence,[5]; 6-week study,2
same,Subjects reporting muscle cramps,[5]; 6-week study,1
same,Subjects reporting nausea,[5]; 6-week study,1
same,Subjects reporting problems with sleeping,[5]; 6-week study,2
same,Subjects reporting stomach cramps,[5]; 6-week study,1
same,Subjects reporting weaker vision,[5]; 6-week study,Another subject
same,Subjects reporting a manic episode,"[5]; week 3, after reducing the dose",One
same,Effect on hematologic toxicities associated with fluorouracil,fluorouracil toxicity; 6 g/dose every 6 hours,reduction in hematologic toxicities
same,Adverse effect seen,"fluorouracil toxicity; cancer patients, toxicity evaluation equivocal because of cancer and fluorouracil toxicities",Diarrhea
same,peak blood uridine levels,"fluorouracil toxicity; suspension and tablet forms, 6 g/dose every 6 hours for 9 doses",167 µM
same,Metabolism of enteral dosages,[6],rapidly metabolized to uridine and uracil
same,Individual patient: mania-type event,"[7]; Patient #3, bipolar II, on antidepressant, 12 g/day",slight hypomania at week three
same,Individual patient: reported mood,"[7]; Patient #4, bipolar I, on antidepressant, 6 to 12 g/day",feeling stable
same,Individual patient: mood at end of study,"[7]; Patient #4, week six",mood deteriorated at week six
same,Individual patient: mania-type event,"[7]; Patient #4, week three",some hypomania at week three
same,Individual patient: reported mood,"[7]; Patient #5, bipolar I, no antidepressant, 6 g/day",significant change in mood at week one
same,Individual patient: adverse effect,[7]; Patient #6,some eye pain
same,Individual patient: reported mood,"[7]; Patient #6, no antidepressant, 6 g/day",feeling significantly better than they had in two years
same,Individual patient: reported mood,"[7]; Patient #7, bipolar I, on antidepressant, 6 to 18 g/day",no change in mood
same,Individual patient: adverse event,[7]; Patient #11,severe bout of colitis
same,Individual patient: bipolar symptoms,"[7]; Patient #11, bipolar II, on antidepressant, 12 g/day",complete remission at week four
same,Individual patient: adverse effect,[7]; Patient #13,slight change in depth perception leading to two falls
same,Individual patient: reported mood,"[7]; Patient #13, bipolar I, no antidepressant, 6 to 9 g/day",feeling less depressed and more hopeful
same,Individual patient: complaints,"[7]; Patient #15, after three weeks","dizziness spells, constipation, and a reported manic episode"
same,Individual patient: reported mood,"[7]; Patient #15, bipolar II, no antidepressant, 6 to 12 g/day",feeling less volatile and fewer mood swings
same,Individual patient: complaints,[7]; Patient #16,loose stools and increased flatulence
same,Individual patient: reported mood,"[7]; Patient #16, bipolar II, on antidepressant, 6 to 12 g/day",no change in mood
same,Individual patient: complaints,[7]; Patient #17,loose stools and increased flatulence
same,Individual patient: reported mood,"[7]; Patient #17, bipolar II, on antidepressant, 6 to 12 g/day",no change in mood
same,Average GAF score,[7]; after week four (FIG. 4),declined to a level slightly above the initial GAF score
same,Average GAF score,[7]; beginning of the study to week four (FIG. 4),improved slightly
same,Average MADRS scores,[7]; between week three and week six (FIG. 1),rose slightly
same,Induction of mania,[7]; [8],did not induce mania
same,Safety of administration,[7]; [8],safe
same,Average female CGI scores,"[7]; course of the study relative to initial score, unlike male scores (FIG. 7)",improved
same,Averaged YMRS scores,[7]; during the course of the study (FIG. 2),slight decrease
same,Average HAM-A score,[7]; during the course of the study (FIG. 5),went down slightly
same,Female YMRS scores vs initial baseline,[7]; during the study (FIG. 6),did not increase above the initial baseline score
same,Average CGI score,[7]; end of the study vs baseline (FIG. 3),somewhat above baseline
same,Average MADRS scores,[7]; first three weeks of treatment (FIG. 1),slight decrease
same,"Average YMRS, female patients","[7]; first three weeks, female vs male (FIG. 6)",declined slightly more than males
same,"Average CGI scores, patients not taking antidepressant",[7]; vs patients on antidepressant medication (FIG. 8),faster decline
same,CGI,[7]; weeks one to three (FIG. 3),improved slightly
same,CGI,[7]; weeks three to six (FIG. 3),deteriorated slightly
same,Effect on patients' depression (MADRS),[7]; whole study,did not significantly worsen patients' depression
